US10294228B2, “Breathing control modulating compounds, and methods of making and using same” (NEURAD LTD., priority 2015, dated 2019)
Counter-ions that a name gives are not always drawn.

System: anesthetized rats
Assay: Anesthetized rat spirometry screening assay (ventilatory activity, minute volume)
Format: in vivo
Details: increase in minute volume (VE); for change in vivo at 0.3 mg/kg: 0.3 mg/kg IV bolus, read-out: VE % Inc @ 0.3 mg/kg IV; for change in vivo at 3 mg/kg: 3.0 mg/kg IV bolus, read-out: VE % Inc @ 3.0 mg/kg IV
Procedure, shortened: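 Urethane-anesthetized (1.5 g/kg i.v.) rats with tracheal cannula to pneumotachometer; minute volume derived from respiratory rate × tidal volume. Compounds given as i.v. bolus at 0.1 and/or 0.3 and/or 3 mg/kg, monitored at least 6 min; data as 30 s averages.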

SMILES | change in vivo at 0.3 mg/kg [%] | change in vivo at 3 mg/kg [%]
CCCNc1nc(NC)c2nc(N[C@H]3CCC[C@@H]3O)nc(NC)c2n1 [Compound 139, (1S,2S)-2-(4,8-Bis-methylamino-6-propylamino-pyrimido[5,4-d]pyrimidin-2-ylamino)-cyclopentanol] | 90 | 114
CCCNc1nc(NC)c2nc(NCC(O)CC)nc(NC)c2n1 (stereo not drawn) [Compound 117, 1-(4,8-Bis-methylamino-6-propylamino-pyrimido[5,4-d]pyrimidin-2-ylamino)-butan-2-ol] | 150 | 162
CCCNc1nc(NC)c2nc(NCC(O)CO)nc(NC)c2n1 (stereo not drawn) [Compound 121, 3-(4,8-Bis-methylamino-6-propylamino-pyrimido[5,4-d]pyrimidin-2-ylamino)-propane-1,2-diol] | 0 | 38
CNc1nc(NCC2CC2)nc2c(NC)nc(NCCO)nc12 [Compound 90, 2-[6-(Cyclopropylmethyl-amino)-4,8-bis-methylamino-pyrimido[5,4-d]pyrimidin-2-ylamino]-ethanol] | 26 | –
CCCNc1nc(NC)c2nc(NC(C)C(C)O)nc(NC)c2n1 (stereo not drawn) [Compound 119, 3-(4,8-Bis-methylamino-6-propylamino-pyrimido[5,4-d]pyrimidin-2-ylamino)-butan-2-ol] | 10 | 151
C=CCNc1nc(NC)c2nc(N(CCC)C[C@H](C)O)nc(NC)c2n1 [Compound 155, (S)-1-[(6-Allylamino-4,8-bis-methylamino-pyrimido[5,4-d]-pyrimidin-2-yl)-propyl-amino]-propan-2-ol] | 14 | 79
CCCNc1nc(NC)nc2c(NCC(O)CC)nc(NC)nc12 (stereo not drawn) [Compound 24a, 1-(2,6-Bis-methylamino-8-propylamino-pyrimido[5,4-d]pyrimidin-4-ylamino)-butan-2-ol Hydrochloride] | 100 | 121
CNc1nc(NCC(C)(C)O)c2nc(NC)nc(NC)c2n1 [Compound 48a, 2-Methyl-1-(2,6,8-tris-methylamino-pyrimido[5,4-d]-pyrimidin-4-ylamino)-propan-2-ol Hydrochloride] | 20 | 78
CCCNc1nc(NCC(F)F)nc2c(NCC(C)(C)O)nc(NCC(F)F)nc12 [Compound 33a, 1-[2,6-Bis-(2,2-difluoro-ethylamino)-8-propylamino-pyrimido[5,4-d]-pyrimidin-4-ylamino]-2-methyl-propan-2-ol Hydrochloride] | 23 | 115
CCCNc1nc(NCC)c2nc(NCC(C)(C)O)nc(NCC)c2n1 [Compound 163, 1-(4,8-Bis-ethylamino-6-propylamino-pyrimido[5,4-d]pyrimidin-2-ylamino)-2-methyl-propan-2-ol] | 88 | 144
CCC(O)CNc1nc(NC)c2nc(NCC3CC3)nc(NC)c2n1 (stereo not drawn) [Compound 146, 1-[6-(Cyclopropylmethyl-amino)-4,8-bis-methylamino-pyrimido[5,4-d]pyrimidin-2-ylamino]-butan-2-ol] | 9 | 121
CCCNc1nc(NC)c2nc(N[C@@H]3c4ccccc4C[C@@H]3O)nc(NC)c2n1 [Compound 123, (1R,2S)-1-(4,8-Bis-methylamino-6-propylamino-pyrimido[5,4-d]-pyrimidin-2-ylamino)-indan-2-ol] | 11 | 129
CCCNc1nc(NC)c2nc(N[C@@H]3CCCC[C@H]3O)nc(NC)c2n1 [Compound 137, (1R,2R)-2-(4,8-Bis-methylamino-6-propylamino-pyrimido[5,4-d]pyrimidin-2-ylamino)-cyclohexanol] | 22 | 103
CCCNc1nc(NCC)c2nc(NCCO)nc(NCC)c2n1 [Compound 162, 2-(4,8-Bis-ethylamino-6-propylamino-pyrimido[5,4-d]pyrimidin-2-ylamino)-ethanol] | 187 | 216
CC[C@@H](C)Nc1nc(NC)nc2c(NCC(C)(C)O)nc(NC)nc12 [Compound 40a, 1-[8-((R)-sec-Butylamino)-2,6-bis-methylamino-pyrimido[5,4-d]-pyrimidin-4-ylamino]-2-methyl-propan-2-ol Hydrochloride] | 79 | 158
CNc1nc(NC)c2nc(NCC(C)(C)O)nc(NC)c2n1 [Compound 149, 2-Methyl-1-(4,6,8-tris-methylamino-pyrimido[5,4-d]pyrimidin-2-ylamino)-propan-2-ol] | 16 | 49
CCNc1nc(NC[C@@H](C)O)nc2c(NCC)nc(N)nc12 [Compound 171, (R)-1-(6-Amino-4,8-bis-ethylamino-pyrimido[5,4-d]-pyrimidin-2-ylamino)-propan-2-ol] | 17 | 175

SMILES | change in vivo at 0.3 mg/kg [%] | change in vivo at 3 mg/kg [%]
CNc1nc(NCC2CC2)c2nc(NC)nc(NCCO)c2n1 [Compound 54a, 2-[8-(Cyclopropylmethyl-amino)-2,6-bis-methylamino-pyrimido[5,4-d]pyrimidin-4-ylamino]-ethanol Hydrochloride] | 165 | –
CC[C@H](C)Nc1nc(NC)c2nc(NC[C@H](C)O)nc(NC)c2n1 [Compound 105, (S)-1-[6-((S)-sec-Butylamino)-4,8-bis-methylamino-pyrimido[5,4-d]pyrimidin-2-ylamino]-propan-2-ol] | 14 | 120
CCNc1nc(NCC)c2nc(NC[C@H](C)O)nc(NCC)c2n1 [Compound 165, (S)-1-(4,6,8-Tris-ethylamino-pyrimido[5,4-d]pyrimidin-2-ylamino)-propan-2-ol] | 66 | 101
CNc1nc(NCC(C)(C)O)c2nc(NC)nc(NCc3ccccc3)c2n1 [Compound 44a, 1-(8-Benzylamino-2,6-bis-methylamino-pyrimido[5,4-d]pyrimidin-4-ylamino)-2-methyl-propan-2-ol Hydrochloride] | 122 | 132
CCCNc1nc(NC)c2nc(N[C@@H]3c4ccccc4C[C@H]3O)nc(NC)c2n1 [Compound 129, (1R,2R)-1-(4,8-Bis-methylamino-6-propylamino-pyrimido[5,4-d]-pyrimidin-2-ylamino)-indan-2-ol] | 2 | 68
C#CCNc1nc(NC)nc2c(NCCO)nc(NC)nc12 [Compound 58a, 2-(2,6-Bis-methylamino-8-prop-2-ynylamino-pyrimido[5,4-d]pyrimidin-4-ylamino)-ethanol Hydrochloride] | 10 | –
CCCNc1nc(NC)nc2c(N3CCC(O)C3)nc(NC)nc12 (stereo not drawn) [Compound 71a, 1-(2,6-Bis-methylamino-8-propylamino-pyrimido[5,4-d]pyrimidin-4-yl)-pyrrolidin-3-ol Hydrochloride] | 17 | 84
CCCNc1nc(NC)c2nc(N[C@H]3c4ccccc4C[C@H]3O)nc(NC)c2n1 [Compound 127, (1S,2R)-1-(4,8-Bis-methylamino-6-propylamino-pyrimido[5,4-d]-pyrimidin-2-ylamino)-indan-2-ol] | 81 | 108
CCCNc1nc(NC)nc2c(N[C@H]3CCC[C@@H]3O)nc(NC)nc12 [Compound 86, (1S,2S)-2-(2,6-Bis-methylamino-8-propylamino-pyrimido[5,4-d]pyrimidin-4-ylamino)-cyclopentanol] | 26 | 92
CCCNc1nc(NC)nc2c(N[C@@H]3c4ccccc4C[C@H]3O)nc(NC)nc12 [Compound 80, (1R,2R)-1-(2,6-Bis-methylamino-8-propylamino-pyrimido[5,4-d]-pyrimidin-4-ylamino)-indan-2-ol] | 71 | 95
C=CCNc1nc(NC)c2nc(NCCO)nc(NC)c2n1 [Compound 154, 2-(6-Allylamino-4,8-bis-methylamino-pyrimido[5,4-d]pyrimidin-2-ylamino)-ethanol] | 40 | 103
CCCNc1nc(NC)nc2c(N[C@H](C)CO)nc(NC)nc12 [Compound 20a, (R)-2-(2,6-Bis-methylamino-8-propylamino-pyrimido[5,4-d]-pyrimidin-4-ylamino)-propan-1-ol Hydrochloride] | 107 | –
CCCNc1nc(NCC)nc2c(NCC(C)(C)O)nc(NCC)nc12 [Compound 32a, 1-(2,6-Bis-ethylamino-8-propylamino-pyrimido[5,4-d]-pyrimidin-4-ylamino)-2-methyl-propan-2-ol hydrochloride] | 201 | –
CCCNc1nc(NC)c2nc(N(C)CC(C)O)nc(NC)c2n1 (stereo not drawn) [Compound 97, 1-[(4,8-Bis-methylamino-6-propylamino-pyrimido[5,4-d]pyrimidin-2-yl)-methyl-amino]-propan-2-ol] | 49 | 140
CCNc1nc(NC)nc2c(NCCCO)nc(NC)nc12 [Compound 67a, 3-(8-Ethylamino-2,6-bis-methylamino-pyrimido[5,4-d]-pyrimidin-4-ylamino)-propan-1-ol Hydrochloride] | 7 | 136
CCCNc1nc(NC)nc2c(N[C@@H](C)CO)nc(NC)nc12 [Compound 18a, (S)-2-(2,6-Bis-methylamino-8-propylamino-pyrimido[5,4-d]-pyrimidin-4-ylamino)-propan-1-ol Hydrochloride] | 50 | –
